# Data reported in patent US20250388593A1 (MITSUBISHI TANABE PHARMA CORPORATION, priority 2023, published 2025).
# Biological target: CRBN truncate (318-426) (Homo sapiens (Human), UniProt Q96SW2)
# Assay: Measurement of molecular interactions using surface plasmon resonance (SPR), Biacore T200
# Format: binding
# Details: 25° C., immobilized CRBN truncate, upper limit of measurement 200 μM
# Summary of the method: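 Compound injections used 60 s association and 120 s dissociation in HEPES pH 7.5 buffer (150 mM NaCl, 1 mM TCEP, 0.005% Tween 20, 2% DMSO). The ligand was CRBN truncate 318-426 bearing a C-terminal Avi-tag, immobilised via streptavidin on an SA sensor chip.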
# CRBN truncate (318-426), sequence (Q96SW2 318-426): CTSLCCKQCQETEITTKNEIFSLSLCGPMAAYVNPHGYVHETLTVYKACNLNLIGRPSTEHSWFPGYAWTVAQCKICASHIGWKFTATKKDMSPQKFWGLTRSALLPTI
row,SMILES,Kd [µM]
1,"Cc1sc2c(c1C)C(c1ccc(Cl)cc1)=N[C@@H](CC(=O)NCCCCCCCCNC(=O)CCc1ccc(-c3nn(C4CCCC(=O)NC4=O)c(=O)n3C)cc1)c1nnc(C)n1-2 (stereo partly drawn) [Example 336, N-[8-[[2-[(9S)-7-(4-chlorophenyl)-4,5,13-trimethyl-3-thia-1,8,11,12-tetraazatricyclo[8.3.0.02,6]trideca-2(6),4,7,10,12-pentaen-9-yl]acetyl]amino]octyl]-3-[4-[1-(2,7-dioxoazepan-3-yl)-4-methyl-5-oxo-1,2,4-triazol-3-yl]phenyl]propanamide]",< 50
2,"CC(C)(C)OC(=O)c1cccc(C2CCCC(=O)NC2=O)c1 (stereo not shown) [Example 60, tert-Butyl 3-(2,7-dioxoazepan-3-yl) benzoate]",50 to 100
3,"Cc1sc2c(c1C)C(c1ccc(Cl)cc1)=N[C@@H](CC(=O)NCCCCCCCNC(=O)Cn1c(=O)c(=O)n(C3CCCC(=O)NC3=O)c3ccccc31)c1nnc(C)n1-2 (stereo partly drawn) [Example 350, 2-[(9S)-7-(4-chlorophenyl)-4,5,13-trimethyl-3-thia-1,8,11,12-tetraazatricyclo[8.3.0.02,6]trideca-2(6),4,7,10,12-pentaen-9-yl]-N-[7-[[2-[4-(2,7-dioxoazepan-3-yl)-2,3-dioxo-quinoxalin-1-yl]acetyl]amino]heptyl]acetamide]",< 50
4,"O=C1CCCC(CNc2ccc(F)cc2)C(=O)N1 (stereo not shown) [Example 25, 3-[(4-Fluoroanilino)methyl]azepane-2,7-dione]",≥ 100
5,"O=C1CCCC(NS(=O)(=O)c2ccc(Cl)cc2)C(=O)N1 (stereo not shown) [Example 8, 4-Chloro-N-(2,7-dioxoazepan-3-yl) benzenesulfonamide]",≥ 100
6,"CC(C)(C)OC(=O)NCCn1c(=O)n(C2CCCC(=O)NC2=O)c2ccccc21 (stereo not shown) [Example 197, tert-Butyl N-[2-[3-(2,7-dioxoazepan-3-yl)-2-oxobenzimidazol-1-yl]ethyl]carbamate]",≥ 100
7,"Cn1c(=O)n(C2CCCC(=O)NC2=O)c2cccc(CCCCC(=O)OC(C)(C)C)c21 (stereo not shown) [Example 214, tert-Butyl 5-[1-(2,7-dioxoazepan-3-yl)-3-methyl-2-oxobenzimidazol-4-yl]pentanoate]",50 to 100
8,"CN(C1CCCC(=O)NC1=O)S(=O)(=O)c1ccc(Cl)cc1 (stereo not shown) [Example 7, 4-Chloro-N-(2,7-dioxoazepan-3-yl)-N-methylbenzenesulfonamide]",≥ 100
9,"CC(C)(C)OC(=O)N1CCN(C2CCCC(=O)NC2=O)C(=O)C1=O (stereo not shown) [Example 29-2, tert-Butyl 4-(2,7-dioxoazepan-3-yl)-2,3-dioxopiperazine-1-carboxylate]",≥ 100
10,CC(C)(C)OC(=O)N1CCC(c2ccc(OC3CCCC(=O)NC3=O)cc2)CC1 (stereo not shown) [Example 276],≥ 100
11,CC(C)(C)OC(=O)/C=C/c1nn(C2CCCC(=O)NC2=O)c2ccccc12 (stereo not shown) [Example 136],50 to 100
12,Cn1c(=O)n(C2CCCC(=O)NC2=O)c2ccc(CCC(=O)OC(C)(C)C)cc21 (stereo not shown) [Example 141],50 to 100
13,"CN(C1CCCC(=O)NC1=O)S(=O)(=O)c1ccc(CCCCCCNC(=O)OC(C)(C)C)cc1 (stereo not shown) [Example 271, tert-Butyl N-[6-[4-[(2,7-dioxoazepan-3-yl)-methylsulfamoyl]phenyl]hexyl]carbamate]",≥ 100
14,"Cn1c(=O)n(C2CCCC(=O)NC2=O)c2ccc(C3CCN(C(=O)OC(C)(C)C)CC3)cc21 (stereo not shown) [Example 218, tert-Butyl 4-[1-(2,7-dioxoazepan-3-yl)-3-methyl-2-oxobenzimidazol-5-yl]piperidine-1-carboxylate]",50 to 100
15,"Cc1sc2c(c1C)C(c1ccc(Cl)cc1)=N[C@@H](CC(=O)NCCCCCCCCNC(=O)CN1CC3(CC(=O)N(C4CCC(=O)NC4=O)C3=O)C1)c1nnc(C)n1-2 (stereo partly drawn) [Example 331, 2-[(9S)-7-(4-chlorophenyl)-4,5,13-trimethyl-3-thia-1,8,11,12-tetraazatricyclo[8.3.0.02,6]trideca-2(6),4,7,10,12-pentaen-9-yl]-N-[8-[[2-[6-(2,6-dioxopiperidin-3-yl)-5,7-dioxo-2,6-diazaspiro[3.4]octan-2-yl]acetyl]amino]octyl]acetamide]",< 50
16,"CC(C)(C)OC(=O)NCCCn1c(=O)n(C2CCCC(=O)NC2=O)c2ccccc21 (stereo not shown) [Example 196, tert-Butyl N-[3-[3-(2,7-dioxoazepan-3-yl)-2-oxobenzimidazol-1-yl]propyl]carbamate]",< 50
17,"COc1c(OCC(=O)OC(C)(C)C)cccc1C(=O)NC1CCCC(=O)NC1=O (stereo not shown) [Example 68, tert-Butyl 2-[3-[(2,7-dioxoazepan-3-yl)carbamoyl]-2-methoxyphenoxy]acetate]",≥ 100
18,"CC(C)(C)OC(=O)CCc1ccc2c(c1)oc(=O)n2C1CCCC(=O)NC1=O (stereo not shown) [Example 260, tert-Butyl 3-[3-(2,7-dioxoazepan-3-yl)-2-oxo-1,3-benzoxazol-6-yl]propanoate]",50 to 100
19,"Cc1sc2c(c1C)C(c1ccc(Cl)cc1)=N[C@@H](CC(=O)NCCCCCCCCCCC(=O)N1CCc3c(ncnc3N3CC4(CC(=O)N(C5CCC(=O)NC5=O)C4=O)C3)C1)c1nnc(C)n1-2 (stereo partly drawn) [Example 357, 2-[(9S)-7-(4-chlorophenyl)-4,5,13-trimethyl-3-thia-1,8,11,12-tetraazatricyclo[8.3.0.02,6]trideca-2(6),4,7,10,12-pentaen-9-yl]-N-[11-[4-[6-(2,6-dioxo-3-piperidyl)-5,7-dioxo-2,6-diazaspiro[3.4]octan-2-yl]-6,8-dihydro-5H-pyrido[3,4-d]pyrimidin-7-yl]-11-oxo-undecyl]acetamide]",< 50

# The next lines start with the values.
row,Kd [µM],SMILES
1,50 to 100,"CC(C)(C)OC(=O)c1ccc(N2CCCC3(CCCC(=O)NC3=O)CCC2)nc1 [Example 56, tert-Butyl 6-(1,3-dioxo-2,11-diazaspiro [6.7]tetradecan-11-yl) pyridine-3-carboxylate]"
2,≥ 100,"Cc1sc2c(c1C)C(c1ccc(Cl)cc1)=N[C@@H](CC(=O)NCCCCCCc1cccc(C(=O)N3CCC4(CCCC(=O)NC4=O)C3)c1)c1nnc(C)n1-2 (stereo partly drawn) [Example 308, 2-[(9S)-7-(4-chlorophenyl)-4,5,13-trimethyl-3-thia-1,8,11,12-tetraazatricyclo[8.3.0.02,6]trideca-2(6),4,7,10,12-pentaen-9-yl]-N-[6-[3-(6,8-dioxo-2,7-diazaspiro[4.6]undecane-2-carbonyl)phenyl]hexyl]acetamide]"
3,≥ 100,"CC1(c2cccc(N)c2)CCCC(=O)NC1=O (stereo not shown) [Example 133, 3-(3-Aminophenyl)-3-methyl-azepane-2,7-dione]"
4,≥ 100,"CC(=O)Nc1ccc(N(C)C2CCCC(=O)NC2=O)cc1 (stereo not shown) [Example 121, N-[4-[(2,7-Dioxoazepan-3-yl)-methyl-amino]phenyl]acetamide]"
5,< 50,"O=C1CCCC2(CCN(c3ccc([N+](=O)[O-])cc3)C2)C(=O)N1 (stereo not shown) [Example 80, 2-(4-Nitrophenyl)-2,7-diazaspiro[4.6]undecane-6,8-dione]"
6,≥ 100,"CCOC(=O)c1ccc2nc(N3CC4(CC(=O)N(C5CCCC(=O)NC5=O)C4=O)C3)sc2c1 (stereo not shown) [Example 273-2, Ethyl 2-[6-(2,7-dioxoazepan-3-yl)-5,7-dioxo-2,6-diazaspiro [3.4]octan-2-yl]-1,3-benzothiazole-6-carboxylate]"
7,≥ 100,"Cc1ccc(NC(=O)Nc2ccc3nc(N4CCC5(CCCC(=O)NC5=O)C4)sc3c2)cc1Cl (stereo not shown) [Example 296, 1-(3-Chloro-4-methylphenyl)-3-[2-(6,8-dioxo-2,7-diazaspiro [4.6]undecan-2-yl)-1,3-benzothiazol-6-yl]urea]"
8,< 50,"CC(C)(C)OC(=O)c1ccc(N2CC[C@]3(CCCC(=O)NC3=O)CC2=O)cc1 [Example 223, tert-Butyl 4-(4,7,9-trioxo-3,8-diazaspiro [5.6]dodecan-3-yl) benzoate]"
9,< 50,"Cc1sc2c(c1C)C(c1ccc(Cl)cc1)=N[C@@H](CC(=O)NCCCCCCCCNC(=O)COc1ccc(C#N)c(N3CCC4(CCCC(=O)NC4=O)C3)c1)c1nnc(C)n1-2 (stereo partly drawn) [Example 339, 2-[(9S)-7-(4-chlorophenyl)-4,5,13-trimethyl-3-thia-1,8,11,12-tetraazatricyclo[8.3.0.02,6]trideca-2(6),4,7,10,12-pentaen-9-yl]-N-[8-[[2-[4-cyano-3-(6,8-dioxo-2,7-diazaspiro[4.6]undecan-2-yl)phenoxy]acetyl]amino]octyl]acetamide]"
10,≥ 100,"CC(C)(C)OC(=O)c1cnc(N2CCC3(CCCC(=O)NC3=O)C2)nc1 (stereo not shown) [Example 32, tert-Butyl 2-(6,8-dioxo-2,7-diazaspiro [4.6]undecan-2-yl) pyrimidine-5-carboxylate]"
11,≥ 100,"CC(C)(C)OC(=O)c1cnc(N2CCC3(CCCC(=O)NC3=O)C2)s1 (stereo not shown) [Example 95, tert-Butyl 2-(6,8-dioxo-2,7-diazaspiro [4.6]undecan-2-yl)-1,3-thiazole-5-carboxylate]"
12,≥ 100,"O=C1CCCC2(CCN(c3ccc([N+](=O)[O-])cc3)C(=O)C2)C(=O)N1 (stereo not shown) [Example 225, 3-(4-Nitrophenyl)-3,8-diazaspiro [5.6]dodecane-4,7,9-trione]"
13,50 to 100,"COC(=O)c1ccc(CN2CC3(CC(=O)N(C4CCC(=O)NC4=O)C3=O)C2)cc1 (stereo not shown) [Example 54, Methyl 4-[[6-(2,6-dioxopiperidin-3-yl)-5,7-dioxo-2,6-diazaspiro[3.4]octan-2-yl]methyl]benzoate]"
14,≥ 100,"Nc1ccc(N2CCC(N3CCCC(=O)NC3=O)C2=O)cc1 (stereo not shown) [Example 297, 1-[1-(4-Aminophenyl)-2-oxopyrrolidin-3-yl]-1,3-diazepane-2,4-dione]"
15,≥ 100,"Nc1ccc2nc(N3CCCC(=O)NC3=O)sc2c1 [Example 118, 1-(6-Amino-1,3-benzothiazol-2-yl)-1,3-diazepane-2,4-dione]"
16,≥ 100,"CC(=O)Nc1cccc(C2CCCC(=O)NC2=O)c1 (stereo not shown) [Example 71, N-[3-(2,7-Dioxoazepan-3-yl)phenyl]acetamide]"
17,≥ 100,"Cc1ccc(NC(=O)NCc2ccccc2C(=O)N2CCC3(CCCC(=O)NC3=O)C2)cc1Cl (stereo not shown) [Example 156, 1-(3-Chloro-4-methylphenyl)-3-[[2-(6,8-dioxo-2,7-diazaspiro[4.6]undecane-2-carbonyl)phenyl]methyl]urea]"
18,≥ 100,"O=Cc1ccc(N2CCC3(CCCC(=O)NC3=O)C2)nc1 (stereo not shown) [Example 76, 6-(6,8-Dioxo-2,7-diazaspiro[4.6]undecane-2-yl)pyridine-3-carbaldehyde]"
